Results taken from BindingDB's records for doi:10.7270/Q24M9315 (The Scripps Research Institute Molecular Screening Center, 2011).

Target: T1, Caspase-3 (Homo sapiens, UniProt P42574)
T1 sequence (P42574 whole entry): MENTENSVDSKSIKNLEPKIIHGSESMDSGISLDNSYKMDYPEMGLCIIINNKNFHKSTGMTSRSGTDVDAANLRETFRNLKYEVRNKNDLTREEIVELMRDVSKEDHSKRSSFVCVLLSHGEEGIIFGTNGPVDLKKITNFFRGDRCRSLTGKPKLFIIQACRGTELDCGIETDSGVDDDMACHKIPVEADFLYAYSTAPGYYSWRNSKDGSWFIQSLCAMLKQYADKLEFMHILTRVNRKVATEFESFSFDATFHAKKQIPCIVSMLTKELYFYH
Experiment: procaspase-3 activation potency of dual hits, dose response, counter-screen for dual procaspase-3/7 activator project, biochemical, absorbance, PC-3 D3A mutant (AID 504328)

| EC50 | Compound |
| --- | --- |
| > 85.3 µM | C=CC=Nc1c(Cl)c(O)n(-c2cccc(Cl)c2Cl)c1O [MLS000533809] |
| 23.1 µM | Cc1[nH]nc2c1C(c1c[nH]c3ccccc13)C(C#N)C(=N)O2 (configuration not stated) [MLS001030009] |
| > 85.3 µM | CCOc1ccc(NC=C2C(=O)CC(c3ccco3)CC2=O)cc1 (configuration not stated) [SMR000268302] |

Continued, compound first:

| Compound | EC50 |
| --- | --- |
| COc1ccccc1-n1c(O)c2n(-c3ccccc3)[nH]c(C(=O)c3ccccc3)c-2c1=O | > 85.3 µM |
| COC(=O)c1[nH]n(-c2ccc(Cl)cc2)c2c(O)n(-c3ccccc3OC)c(=O)c1-2 [1-(4-Chloro-phenyl)-5-(2-methoxy-phenyl)-4,6-dioxo-1,3a,4,5,6,6a-hexahydro-pyrrolo[3,4-c]pyrazole-3-carboxylic acid methyl ester] | > 85.3 µM |
| O=C(c1ccccc1)c1[nH]n(-c2ccccc2)c2c(O)n(-c3ccccc3)c(=O)c1-2 [3-benzoyl-1,5-diphenyl-3a,6a-dihydropyrrolo[3,4-c]pyrazole-4,6-dione] | > 85.3 µM |
| CCOC(=O)C(C#N)C=Nc1cc(OC)ccc1OC (configuration not stated) [(E)-2-Cyano-3-(2,5-dimethoxy-phenylamino)-acrylic acid ethyl ester] | > 85.3 µM |
